# From patent US20040109896A1, “Aqueous suspension eyedrops and process for producing the same” (priority 2001, published 2004)
# How the values were obtained:
# [1] = Laser diffraction particle size distribution analysis of acyclovir fine crystals; format: physicochemical; details: USP grade sterilized acyclovir fine crystals
# Protocol: USP grade, sterilized acyclovir was used as fine crystals of acyclovir without any processing. Through laser diffraction particle size distribution analysis, the crystals were determined to have an average particle size of 25.9 μm.
# herpes virus = details: Crumpaker et al., Antimicrob. Agents Chemother. 15, 642 (1979); cited from earlier work
smiles,measurement,setting,value
"Nc1nc2c(ncn2COCCO)c(=O)[nH]1 [acyclovir, 9-[(2-hydroxyethoxy)methyl]guanine]",average particle size,[1],25.9 μm
same,ID50 (50% inhibition level) of acyclovir against herpes virus,herpes virus,approximately 0.03 μg/mL
